Here are results for eleven molecules from patent publication US20150344427A1 (EPIZYME, INC., priority 2012, published 2015).

Assay [1] relates to WSU-DLCL2 cells. The experiment in a line: Cell Proliferation Analysis, WSU-DLCL2. It counts as cell-based. The following applies: Homo sapiens, WSUDLCL2, 144 h, 6 days, Cell Titer Glo. The source says: WSU-DLCL2 suspension cells were purchased from DSMZ (German Collection of Microorganisms and Cell Cultures, Braunschweig, Germany). RPMI/Glutamax Medium, Penicillin-Streptomycin, Heat Inactivated Fetal Bovine Serum were purchased from Life Technologies, Grand Island, N.Y., USA. V-bottom polypropylene 384-well plates were purchased from Greiner Bio-One, Monroe, N.C., USA. Cell culture 384-well white opaque plates were purchased from Perkin Elmer, Waltham, Mass., USA. Cell-Titer Glo® was purchased from Promega Corporation, Madison, Wis., USA. SpectraMax M5 plate reader was purchased from Molecular Devices LLC, Sunnyvale, Calif., USA.
WSU-DLCL2 suspension cells were maintained in growth medium (RPMI 1640 supplemented with 10% v/v heat inactivated fetal bovine serum and cultured at 37° C. under 5% CO2. Under assay conditions, cells were incubated in Assay Medium (RPMI 1640 supplemented with 20% v/v heat inactivated fetal bovine serum and 100 units/mL penicillin-streptomycin) at 37° C. under 5% CO2.
For the assessment of the effect of compounds on the proliferation of the WSU-DLCL2 cell line, exponentially growing cells were plated in 384-well white opaque plates at a density of 1250 cell/ml in a final volume of 50 μl of assay medium. A compound source plate was prepared by performing triplicate nine-point 3-fold serial dilutions in DMSO, beginning at 10 mM (final top concentration of compound in the assay was 20 μM and the DMSO was 0.2%). A 100 nL aliquot from the compound stock plate was added to its respective well in the cell plate. […] After addition of compounds, assay plates were incubated for 6 days at 37° C., 5% CO2, relative humidity >90% for 6 days. Cell viability was measured by quantization of ATP present in the cell cultures, adding 35 μl of Cell Titer Glo® reagent to the cell plates. Luminescence was read in the SpectraMax M5. The concentration inhibiting cell viability by 50% was determined using a 4-parametric fit of the normalized dose response curves.
On the technique in general: In ATP-based viability assays light output follows the ATP content of the culture.

In assay [2] the test system is H3K27 trimethylation in WSU-DLCL2 cells. Nature of the assay: WSU-DLCL2 Methylation Assay (H3K27me3 ELISA). The assay is classed as cell-based. The following applies: Homo sapiens, WSUDLCL2, 96 hours incubation, H3K27me3 normalised to total Histone H3. The source says: WSU-DLCL2 suspension cells were purchased from DSMZ (German Collection of Microorganisms and Cell Cultures, Braunschweig, Germany). RPMI/Glutamax Medium, Penicillin-Streptomycin, Heat Inactivated Fetal Bovine Serum, and D-PBS were purchased from Life Technologies, Grand Island, N.Y., USA. Extraction Buffer and Neutralization Buffer (5×) were purchased from Active Motif, Carlsbad, Calif., USA. Rabbit anti-Histone H3 antibody was purchased from Abcam, Cambridge, Mass., USA. Rabbit anti-H3K27me3 and HRP-conjugated anti-rabbit-IgG were purchased from Cell Signaling Technology, Danvers, Mass., USA. TMB “Super Sensitive” substrate was sourced from BioFX Laboratories, Owings Mills, Md., USA. IgG-free Bovine Serum Albumin was purchased from Jackson ImmunoResearch, West Grove, Pa., USA. PBS with Tween (10×PBST) was purchased from KPL, Gaithersburg, Md., USA. Sulfuric Acid was purchased from Ricca Chemical, Arlington, Tex., USA. Immulon ELISA plates were purchased from Thermo, Rochester, N.Y., USA. V-bottom cell culture plates were purchased from Corning Inc., Corning, N.Y., USA. V-bottom polypropylene plates were purchased from Greiner Bio-One, Monroe, N.C., USA.
WSU-DLCL2 suspension cells were maintained in growth medium (RPMI 1640 supplemented with 10% v/v heat inactivated fetal bovine serum and 100 units/mL penicillin-streptomycin) and cultured at 37° C. under 5% CO2 Under assay conditions, cells were incubated in Assay Medium (RPMI 1640 supplemented with 20% v/v heat inactivated fetal bovine serum and 100 units/mL penicillin-streptomycin) at 37° C. under 5% CO2 on a plate shaker.
WSU-DLCL2 cells were seeded in assay medium at a concentration of 50,000 cells per mL to a 96-well V-bottom cell culture plate with 200 μL per well. Compound (1 μL) from 96 well source plates was added directly to V-bottom cell plate. Plates were incubated on a titer-plate shaker at 37° C., 5% CO2 for 96 hours. After four days of incubation, plates were spun at 241×g for five minutes and medium was aspirated gently from each well of cell plate without disturbing cell pellet. Pellet was resuspended in 200 μL DPBS and plates were spun again at 241×g for five minutes. The supernatant was aspirated and cold (4° C.) Extraction buffer (100 μL) was added per well. Plates were incubated at 4° C. on orbital shaker for two hours. Plates were spun at 3427×g×10 minutes. Supernatant (80 μL per well) was transferred to its respective well in 96 well V-bottom polypropylene plate. Neutralization Buffer 5× (20 μL per well) was added to V-bottom polypropylene plate containing supernatant. V-bottom polypropylene plates containing crude histone preparation (CHP) were incubated on orbital shaker x five minutes. Crude Histone Preparations were added (2 μL per well) to each respective well into duplicate 96 well ELISA plates containing 100 μL Coating Buffer (1×PBS+BSA 0.05% w/v). Plates were sealed and incubated overnight at 4° C. The following day, plates were washed three times with 300 μL per well 1×PBST. Wells were blocked for two hours with 300 μL per well ELISA Diluent ((PBS (1×) BSA (2% w/v) and Tween20 (0.05% v/v)). Plates were washed three times with 1×PBST. For the Histone H3 detection plate, 100 μL per well were added of anti-Histone-H3 antibody (Abcam, ab1791) diluted 1:10,000 in ELISA Diluent. For H3K27 trimethylation detection plate, 100 μL per well were added of anti-H3K27me3 diluted 1:2000 in ELISA diluent. Plates were incubated for 90 minutes at room temperature. Plates were washed three times with 300 μL 1×PBST per well. For Histone H3 detection, 100 μL of HRP-conjugated anti-rabbit IgG antibody diluted to 1:6000 in ELISA diluent was added per well. For H3K27me3 detection, 100 μL of HRP conjugated anti-rabbit IgG antibody diluted to 1:4000 in ELISA diluent was added per well. Plates were incubated at room temperature for 90 minutes. Plates were washed four times with 1×PBST 300 μL per well. TMB substrate 100 μL was added per well. […]
On the technique in general: An ELISA detects its analyte on a solid surface through an enzyme-linked reagent.

Assay [3] deals with T1, wild-type EZH2 (PRC2 enzyme) (Homo sapiens, UniProt Q15910).
T1 construct: made in house; host or cells: Spodoptera frugiperda (sf9) cells, baculovirus
The experiment in a line: PRC2 enzyme assay on peptide substrate, wild-type EZH2. It counts as biochemical. The following applies: wild-type PRC2 enzyme 4 nM, H3K27me0 peptide, 3H-SAM Flashplate; read-out: WT EZH2 IC50. The source says: (§1) General Materials. S-adenosylmethionine (SAM), S-adenosylhomocyteine (SAH), bicine, KCl, Tween20, dimethylsulfoxide (DMSO) and bovine skin gelatin (BSG) were purchased from Sigma-Aldrich at the highest level of purity possible. Dithiothreitol (DTT) was purchased from EMD. ^3H-SAM was purchased from American Radiolabeled Chemicals with a specific activity of 80 Ci/mmol. 384-well streptavidin Flashplates were purchased from PerkinElmer.
(§2) Peptides representative of human histone H3 residues 21-44 containing either an unmodified lysine 27 (H3K27me0) or dimethylated lysine 27 (H3K27me2) were synthesized with a C-terminal G(K-biotin) linker-affinity tag motif and a C-terminal amide cap by 21st Century Biochemicals. […] The sequences are listed below.
(§3) Human PRC2 enzymes were purified as 4-component enzyme complexes co-expressed in Spodoptera frugiperda (sf9) cells using a baculovirus expression system. […] The EED subunit contained an N-terminal FLAG tag that was used to purify the entire 4-component complex from sf9 cell lysates.
(§4) The assays were all performed in a buffer consisting of 20 mM bicine (pH=7.6), 0.5 mM DTT, 0.005% BSG and 0.002% Tween20, prepared on the day of use. Compounds in 100% DMSO (1 μL) were spotted into polypropylene 384-well V-bottom plates (Greiner) using a Platemate 2×3 outfitted with a 384-channel pipet head (Thermo). DMSO (1 μL) was added to columns 11, 12, 23, 24, rows A-H for the maximum signal control, and SAH, a known product and inhibitor of PRC2 (1 μL) was added to columns 11,12, 23, 24, rows I-P for the minimum signal control. A cocktail (40 μL) containing the wild-type PRC2 enzyme and H3K27me0 peptide or any of the Y641 mutant enzymes and H3K27me2 peptide was added by Multidrop Combi (Thermo). The compounds were allowed to incubate with PRC2 for 30 min at 25° C., then a cocktail (10 μL) containing a mixture of non-radioactive and ^3H-SAM was added to initiate the reaction (final volume=51 μL). In all cases, the final concentrations were as follows: wild-type or mutant PRC2 enzyme was 4 nM, SAH in the minimum signal control wells was 1 mM and the DMSO concentration was 1%. The assays were stopped by the addition of non-radioactive SAM (10 μL) to a final concentration of 600 μM, which dilutes the ^3H-SAM to a level where its incorporation into the peptide substrate is no longer detectable. 50 μL of the reaction in the 384-well polypropylene plate was then transferred to a 384-well Flashplate and the biotinylated peptides were allowed to bind to the streptavidin surface for at least 1 h before being washed three times with 0.1% Tween20 in a Biotek ELx405 plate washer. The plates were then read in a PerkinElmer TopCount platereader to measure the quantity of ^3H-labeled peptide bound to the Flashplate surface, measured as disintegrations per minute (dpm) or alternatively, referred to as counts per minute (cpm).
(§5) Where dpm=disintegrations per minute, cmpd=signal in assay well, and min and max are the respective minimum and maximum signal controls.
(§6) Where top and bottom are the normally allowed to float, but may be fixed at 100 or 0 respectively in a 3-parameter fit. The Hill Coefficient normally allowed to float but may also be fixed at 1 in a 3-parameter fit. Y is the % inhibition and X is the compound concentration.

The target in assay [4] is T2, EZH2 Y641F mutant (PRC2 enzyme) (Homo sapiens, UniProt Q15910, Y641F).
T2 construct: made in house; host or cells: Spodoptera frugiperda (sf9) cells, baculovirus
The experiment in a line: PRC2 enzyme assay on peptide substrate, EZH2 Y641F mutant. It counts as biochemical. Particulars: Y641F mutant PRC2 enzyme 4 nM, H3K27me2 peptide, 3H-SAM Flashplate.
From the text: as §1, §2, §3, §4, §5, §6

T1 sequence (Q15910 whole entry): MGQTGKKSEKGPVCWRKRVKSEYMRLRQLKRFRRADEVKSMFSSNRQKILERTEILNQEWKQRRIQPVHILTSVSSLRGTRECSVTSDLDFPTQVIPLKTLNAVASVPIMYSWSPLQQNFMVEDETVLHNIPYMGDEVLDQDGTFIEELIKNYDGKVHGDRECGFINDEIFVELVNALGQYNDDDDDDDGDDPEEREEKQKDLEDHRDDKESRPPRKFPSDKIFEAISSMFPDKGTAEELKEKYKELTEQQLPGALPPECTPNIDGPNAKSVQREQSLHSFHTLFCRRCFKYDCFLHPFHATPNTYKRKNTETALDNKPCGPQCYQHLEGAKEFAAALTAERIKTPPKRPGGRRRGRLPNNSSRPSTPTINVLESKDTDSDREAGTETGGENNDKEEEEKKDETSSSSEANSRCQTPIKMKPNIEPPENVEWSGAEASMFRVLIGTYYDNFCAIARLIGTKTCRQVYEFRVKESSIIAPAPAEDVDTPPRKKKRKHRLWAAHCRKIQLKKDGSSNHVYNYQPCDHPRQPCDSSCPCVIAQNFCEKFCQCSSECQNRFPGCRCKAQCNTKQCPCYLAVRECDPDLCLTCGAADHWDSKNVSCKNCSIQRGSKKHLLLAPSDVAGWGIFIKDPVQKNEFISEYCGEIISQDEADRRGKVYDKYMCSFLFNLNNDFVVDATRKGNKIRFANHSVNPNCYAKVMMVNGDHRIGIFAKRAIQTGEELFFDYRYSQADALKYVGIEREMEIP
T1 sequence (O75530 whole entry partner): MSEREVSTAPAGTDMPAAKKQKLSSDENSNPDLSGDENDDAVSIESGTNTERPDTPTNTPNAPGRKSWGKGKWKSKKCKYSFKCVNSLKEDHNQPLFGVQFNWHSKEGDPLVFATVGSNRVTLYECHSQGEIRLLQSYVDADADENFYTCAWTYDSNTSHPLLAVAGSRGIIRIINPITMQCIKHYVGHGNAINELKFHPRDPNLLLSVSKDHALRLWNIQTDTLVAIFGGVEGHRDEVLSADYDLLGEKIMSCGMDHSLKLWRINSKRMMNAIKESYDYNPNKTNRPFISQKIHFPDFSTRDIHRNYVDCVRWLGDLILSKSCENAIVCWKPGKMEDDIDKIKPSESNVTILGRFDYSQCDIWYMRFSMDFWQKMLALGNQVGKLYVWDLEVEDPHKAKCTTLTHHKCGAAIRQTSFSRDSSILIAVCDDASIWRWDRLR
T1 sequence (Q15022 whole entry partner): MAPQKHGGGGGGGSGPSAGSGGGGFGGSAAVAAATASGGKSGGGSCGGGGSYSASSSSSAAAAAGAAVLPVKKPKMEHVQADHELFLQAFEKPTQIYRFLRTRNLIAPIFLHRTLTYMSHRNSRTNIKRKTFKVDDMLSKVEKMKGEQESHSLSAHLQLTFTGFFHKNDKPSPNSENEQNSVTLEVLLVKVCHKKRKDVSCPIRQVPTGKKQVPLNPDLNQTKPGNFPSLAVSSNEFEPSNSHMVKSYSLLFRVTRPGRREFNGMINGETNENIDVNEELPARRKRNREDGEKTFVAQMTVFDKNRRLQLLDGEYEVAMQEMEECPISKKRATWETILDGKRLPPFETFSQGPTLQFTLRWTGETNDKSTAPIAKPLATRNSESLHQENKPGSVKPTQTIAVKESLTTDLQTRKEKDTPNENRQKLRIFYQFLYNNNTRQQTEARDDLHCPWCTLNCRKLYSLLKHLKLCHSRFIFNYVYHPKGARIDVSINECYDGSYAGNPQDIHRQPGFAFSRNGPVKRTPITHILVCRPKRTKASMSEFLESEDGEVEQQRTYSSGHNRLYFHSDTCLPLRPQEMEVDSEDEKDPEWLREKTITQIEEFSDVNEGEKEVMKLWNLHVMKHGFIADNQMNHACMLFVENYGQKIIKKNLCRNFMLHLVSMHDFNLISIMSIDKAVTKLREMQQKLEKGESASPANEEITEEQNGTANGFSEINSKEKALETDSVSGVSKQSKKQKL
T1 sequence (Q09028 whole entry partner): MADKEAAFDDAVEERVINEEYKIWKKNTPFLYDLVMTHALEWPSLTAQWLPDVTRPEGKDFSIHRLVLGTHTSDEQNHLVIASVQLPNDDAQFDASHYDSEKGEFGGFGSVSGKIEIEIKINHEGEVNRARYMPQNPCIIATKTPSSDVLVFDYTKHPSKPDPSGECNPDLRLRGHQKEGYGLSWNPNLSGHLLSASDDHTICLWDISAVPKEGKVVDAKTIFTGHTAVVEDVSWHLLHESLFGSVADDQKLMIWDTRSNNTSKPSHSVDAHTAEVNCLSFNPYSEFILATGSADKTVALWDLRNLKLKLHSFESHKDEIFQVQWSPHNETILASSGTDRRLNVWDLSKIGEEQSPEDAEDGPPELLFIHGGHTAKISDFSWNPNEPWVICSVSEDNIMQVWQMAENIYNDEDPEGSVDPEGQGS
T2 sequence (Q15910 whole entry Y641F): as the sequence (Q15910 whole entry) above, with Y641F counted along it
T2 sequence (O75530 whole entry partner): as the sequence (O75530 whole entry partner) above
T2 sequence (Q15022 whole entry partner): as the sequence (Q15022 whole entry partner) above
T2 sequence (Q09028 whole entry partner): as the sequence (Q09028 whole entry partner) above

The term IC50 denotes the midpoint of a concentration-inhibition curve. `CCN(c1cc(-c2ccc(CN3CCOCC3)cc2)cc(C(=O)NCc2c(C)[nH]c(C)cc2=O)c1C)C1CCOCC1` [Compound 2, N-((2,6-dimethyl-4-oxo-1,4-dihydropyridin-3-yl)methyl)-5-(ethyl(tetrahydro-2H-pyran-4-yl)amino)-4-methyl-4′-(morpholinomethyl)-[1,1′-biphenyl]-3-carboxamide]: the figures for the IC50 in assay [1] and in assay [2] were 19.5 µM and 8.04 µM, respectively.

For the molecule `CCN(c1cc(-c2ccc(CN3CCOCC3)cc2)cc(C(=O)NCc2c(Cl)[nH]c(C)cc2=O)c1C)C1CCOCC1` [Compound 4, N-((2-chloro-6-methyl-4-oxo-1,4-dihydropyridin-3-yl)methyl)-5-(ethyl(tetrahydro-2H-pyran-4-yl)amino)-4-methyl-4′-(morpholinomethyl)-[1,1′-biphenyl]-3-carboxamide], the 50% inhibitory concentration (IC50) in assay [1] was 6.72 µM; in assay [2], 9.07 µM.

For the molecule `CCN(c1cc(C#CCN2CCOCC2)cc(C(=O)NCc2c(C)[nH]c(C)cc2=O)c1C)[C@H]1CC[C@H](N(C)C)CC1` [Compound 95], the IC50 in assay [3] was determined as 17 nM; in assay [4] it was 12 nM; in assay [2], 11.4 µM.

On to `CCN(c1cc(C#CCN2CCOCC2)cc(C(=O)NCc2c(Cl)[nH]c(C)cc2=O)c1C)[C@H]1CC[C@H](N(C)C)CC1` [Compound 96], for which the results for the IC50 in assay [3], in assay [4] and in assay [2] were 130 nM, 118 nM and 4.3 µM, respectively.

For the molecule `CCN(c1cc(C#CC2(C)COC2)cc(C(=O)NCc2c(C)[nH]c(C)cc2=O)c1C)[C@H]1CC[C@H](N(C)C)CC1` [Compound 97], the half-inhibitory concentration (IC50) in assay [3] came out at 5 nM; in assay [4] it was 8 nM; in assay [2] it was 9.2 µM.

Take `CCN(c1cc(-c2ccc(CN3CCOCC3)cc2)cc(C(=O)NCc2c(C)[nH]c(C)cc2=O)c1C)[C@H]1CC[C@H](N(C)C)CC1` [Compound 98]: the values for the half-maximal inhibitory concentration (IC50) in assay [1] and in assay [2] were 4.4 µM and 3.1 µM, respectively.

In the case of `CCN(c1cc(Cl)cc(C(=O)NCc2c(C)[nH]c(C)cc2=O)c1C)[C@H]1CC[C@H](N(C)Cc2cccc(OC)c2)CC1` [Compound 99], the IC50 in assay [3] amounted to 1 nM; in assay [4], 5 nM; in assay [2] it was 0.56 µM.

`CCN(c1cc(Cl)cc(C(=O)NCc2c(Cl)[nH]c(C)cc2=O)c1C)[C@H]1CC[C@H](N(C)Cc2cccc(OC)c2)CC1` [Compound 101]: the half-maximal inhibitory concentration (IC50) in assay [3] turned out to be 15 nM; in assay [4] it was 10 nM; in assay [2] it was 3 µM.

Consider `CCN(c1cc(-c2ccc(OCCOC)cc2)cc(C(=O)NCc2c(Cl)[nH]c(C)cc2=O)c1C)[C@H]1CC[C@H](N(C)CCOC)CC1` [Compound 102], for which the IC50 is 150 nM in assay [3], 93 nM in assay [4] and 10.8 µM in assay [2].

With `CCN(c1cc(Cl)cc(C(=O)NCc2c(C)[nH]c(C)cc2=O)c1C)C1CCN(CCOC)CC1` [Compound 103], the IC50 in assay [3] came out at 360 nM; in assay [4], 341 nM; in assay [2], 41.3 µM.

Regarding `CCN(c1cc(Cl)cc(C(=O)NCc2c(Cl)[nH]c(C)cc2=O)c1C)C1CCN(CCOC)CC1` [Compound 104], the IC50 in assay [3] was 870 nM; in assay [4] it was 598 nM; in assay [2] it was 49.5 µM.
